{"source": "patent US4882359A", "about": "“Azacycloalkane derivatives, absorption promoters containing the derivatives as the effective ingredient and external preparations containing the absorption promoters” (priority 1986, dated 1989)", "key": {"[1]": {"assay": "Percutaneous absorption of pindolol in rats, serum concentration by HPLC", "format": "in vivo, Wistar-strain male rats", "conditions": "relative to Control (Vehicle) = 1.0 of the same series in Table 5", "protocol": "There were provided groups each consisting of four Wistar-strain male rats each weighing 200 to 250 g and having their dorsal skin hair shorn with an electric shaver.\nEach of the test solutions (pindolol-containing preparations) was applied to the shorn dorsal skin of test rats of one of the groups in an amount of 150 μl/2.5×2.5 cm^2 and then sealed up. Three hours after the application of the test solution, the blood of the test rats was collected and measured for serum concentration of pindolol by HPLC.\nFor comparison, the above procedure was followed except that there was used a control solution which was the same as said test solution except for non-use of any compounds of this invention, and also followed using a comparative test solution which was the same as the test solution except for the substitution of a comparative compound for the compound of this invention."}, "[2]": {"assay": "Skin penetration of pindolol from test solution, diffusion cell method", "format": "in vitro ADME, female hairless mice"}, "[3]": {"tested_on": "glucose level in blood", "assay": "Percutaneous absorption of glibenclamide: glucose level in blood of glucose-loaded rats", "format": "in vivo, Wistar-strain male rats", "protocol": "There were prepared control and test solutions having the following respective formulations (Table 8): […]\nIn the tests, there were used groups each consisting of four Wistar-strain male rats which weighed about 200 to 250 g and abstained from food for 24 hours.\nEach of the control solutions A and B and the test solution indicated in the above Table 8 was applied to the dorsal skins, shorn by an electric clipper or shaver, of the rats of one group in an amount of 175 μl/2.5×2.5 cm^2 and then sealed up. Three hours after sealing up, 1.5 ml of 20% glucose was subcutaneously injected into said rats. Two hours after the glucose injection, the blood of the rats was collected and measured for glucose level in blood.\nFor comparison, the above procedure was followed except that azone was substituted for the compound of Example 12 in the test solution.\nFor further comparison, the blood of rats of one group which had been subjected only to 24 hours' abstinence from food (this group being hereinafter referred to as \"normal group\"), was measured for glucose level in blood. The rat groups to which the control solution A, the control solution B and the test solution were applied, are hereinafter referred to as \"control group A\", \"control group B\" and \"test group\", respectively."}, "[4]": {"assay": "Skin penetration of 5-FU from test solution, diffusion cell method", "format": "in vitro ADME, female hairless mice"}, "[5]": {"assay": "Skin penetration of various drugs from test solution, diffusion cell method", "format": "in vitro ADME, female hairless mice"}, "[6]": {"tested_on": "glucose level in blood", "assay": "Rectal absorption of insulin from suppository: glucose level in blood of rabbits", "format": "in vivo, male rabbits", "conditions": "insulin suppository 0.3 g/kg rectal, 3% promoter where used", "protocol": "There were prepared the following suppositories for use in normal, control and test groups, respectively, each group consisting of five male rabbits weighing 2.5 to 3.5 kg each.\nThe three suppositories were into the rectums of the rabbit groups in an amount of 0.3 g suppository/kg, respectively. Thereafter, blood was collected from the rabbits through their ear vein three times with the lapse of time to measure the three collected blood samples for glucose level in blood by a glucose oxidase method. […] The results are indicated in terms of a change in glucose level in blood with respect to the glucose level in blood prior to the administration of the suppositories."}, "[7]": {"assay": "Rectal absorption of antibiotics from suppositories, serum concentration by HPLC", "format": "in vivo, male rabbits", "conditions": "relative to Control (Vehicle) = 1.0, equals AUC ratio", "experimental": "There was prepared the following suppositories of antibiotics for use in control and test groups, respectively, each group consisting of five male rabbits weighing 2.5 to 3.5 kg each."}, "[8]": {"assay": "Rectal absorption of indomethacin and 5-FU from suppositories", "format": "in vivo, rabbits", "protocol": "Each of male rabbits was fasted for 24 hrs prior to the following Experiment. The two suppositories were into the rectums of the rabbit groups in an amount of 0.3 g suppository/kg, respectively. Thereafter, blood was collected from the rabbits through their ear vein to measure the collected blood samples for the serum concentration of antibiotic by HPLC.\nThere was prepared test suppositories having the following formulations: […]\nThe same procedure of Example 151 was followed except that the above suppositories were used and that 3 or 4 rabbits were used in each group."}, "[9]": {"tested_on": "dorsal skin of Japanese-native rabbits", "assay": "Primary skin irritation test (Draize's method)", "format": "in vivo", "set-up": "key to Average irritation score, 24 hours / Average irritation score, 48 hours / Average irritation score, 72 hours: Draize points: 0-2 mild, 2-6 moderate, 6-8 severe irritation", "protocol": "As one of tests on the compounds of this invention for their topical toxicity, a primary skin irritation test was made on skins using rabbits as the subjects. More particularly, an adhesive plaster for use in batch tests, to which 100 μl of a 3% test solution of each of the compounds of Examples 12, 37, 57 and 73 of this invention in 100 ml of polyethylene glycol 300 had dropwise been applied, was applied to the hair-shorn dorsal skin of three Japanese-native rabbits weighing 2.5 to 3.0 kg each and then sealed up on the dorsal skin for 24 hours. The rabbits were evaluated three times for their dorsal skin irritative reaction 24, 48 and 72 hours after removal of the plaster by using a method in accordance with the Draize's method.\nThe results are as shown in Table 18 in which the overall evaluation is represented by the following equation. [formula] and is graded into mild irritation (0-2 points), moderate irritation (2-6 points) and severe irritation (6-8 points)."}, "[10]": {"conditions": "relative to Control (Vehicle) = 1.0; equals ratio of 48 hrs values", "experimental": "There were investigated the effects of the compound of this invention on the percutaneous penetration of ketoprofen using the dorsal skin of female hairless mice (each 9 weeks old) by a diffusion cell method which comprised adding 0.5 ml of said test solution to the donor side and measuring the amount of ketoprofen permeated into the receptor layer by performance liquid chromatography (HPLC). For comparison, the above procedure was followed except that a control solution containing no compound of this invention was substituted for said test solution containing the compound of this invention."}, "[11]": {"conditions": "hydrophylic ointment, relative to Control (Vehicle) = 1.0"}, "[12]": {"conditions": "gel ointment, relative to Control (Vehicle) = 1.0"}, "[13]": {"conditions": "acryl tape, relative to Control (Vehicle) = 1.0"}, "[14]": {"conditions": "relative to Control (Vehicle) = 1.0", "experimental": "There were investigated the effects of the compound of this invention on the percutneous penetration of phenol red which is difficult to be penetrated using the dorsal skin of female hairless mice (each 9 weeks old) by a diffusion cell method which comprised adding 0.5 ml of a sodium chloride injection containing 2 mM of phenol red to the donor side and measuring the amount of phenol red permeated into the receptor layer by high-pace optimal densitometric meter (559 nm)."}, "[15]": {"assay": "in vivo", "conditions": "rat"}}, "note": "Read-outs that look alike come from different tables or passages of the source.", "data": [{"smiles": "CCCCCCCCCCSCCN1CCCC1=O", "note": "[Example 12]", "values": [{"measurement": "Activity (serum concentration of pindolol)", "setting": "[1]", "result": 47.8}, {"measurement": "Cumulative amount of pindolol permeated, 24 hrs later", "setting": "[2]", "result": "50.0 ± 7.0", "unit": "µM"}, {"measurement": "Cumulative amount of pindolol permeated, 48 hrs later", "setting": "[2]", "result": "127.6 ± 4.8", "unit": "µM"}, {"measurement": "Activity (pindolol permeation)", "setting": "[2]; test solution, relative to Control (Vehicle) = 1.0", "result": 34.5}, {"measurement": "Glucose level", "setting": "[3]; glibenclamide 0.6 wt.% solution on dorsal skin, two hours after s.c. 20% glucose", "result": "115 ± 4", "unit": "mg/dL"}, {"measurement": "Inhibition rate", "setting": "[3]; glucose level, relative to control group A and normal group", "result": 46.4, "unit": "%"}, {"measurement": "Cumulative amount of 5-FU permeated, 24 hrs later", "setting": "[4]; 3.0 wt.% test compound, 5-FU 1.8 wt.% in ethanol/water, 24 hrs", "result": "465 ± 83", "unit": "µM"}, {"measurement": "Cumulative amount of 5-FU permeated, 48 hrs later", "setting": "[4]; 3.0 wt.% test compound, 5-FU 1.8 wt.% in ethanol/water, 48 hrs", "result": "963 ± 22", "unit": "µM"}, {"measurement": "Activity (5-FU permeation)", "setting": "[4]; relative to Control (Vehicle) = 1.0", "result": 4.7}, {"measurement": "Activity (skin penetration)", "setting": "[5]; drug: 1,25-Dihydroxy VD3", "result": 5.4}, {"measurement": "Activity (skin penetration)", "setting": "[5]; drug: 8-Bromocyclic AMP", "result": 50.3}, {"measurement": "Activity (skin penetration)", "setting": "[5]; drug: Chlordiazepoxide", "result": 4.8}, {"measurement": "Activity (skin penetration)", "setting": "[5]; drug: Clonidine", "result": 6.3}, {"measurement": "Activity (skin penetration)", "setting": "[5]; drug: Clotrimazole", "result": 3.2}, {"measurement": "Activity (skin penetration)", "setting": "[5]; drug: Diazepam", "result": 3.5}, {"measurement": "Activity (skin penetration)", "setting": "[5]; drug: Erythromycin", "result": 4.5}, {"measurement": "Activity (skin penetration)", "setting": "[5]; drug: Estradiol", "result": 2.0}, {"measurement": "Activity (skin penetration)", "setting": "[5]; drug: Ketotifen", "result": 3.8}, {"measurement": "Activity (skin penetration)", "setting": "[5]; drug: Lidocain", "result": 10.3}, {"measurement": "Activity (skin penetration)", "setting": "[5]; drug: Nicotinic acid", "result": 15.3}, {"measurement": "Activity (skin penetration)", "setting": "[5]; drug: Nifedipine", "result": 6.2}, {"measurement": "Activity (skin penetration)", "setting": "[5]; drug: Prostaglandin E2", "result": 4.8}, {"measurement": "Activity (skin penetration)", "setting": "[5]; drug: Scopolamin", "result": 2.4}, {"measurement": "Activity (skin penetration)", "setting": "[5]; drug: Testosterone", "result": 2.5}, {"measurement": "Activity (skin penetration)", "setting": "[5]; drug: Triamcinolone", "result": 5.5}, {"measurement": "Activity (skin penetration)", "setting": "[5]; drug: p-Aminobenzoic acid", "result": 12.3}, {"measurement": "Changes of glucose level to the initial, 0.5 hr", "setting": "[6]; 0.5 hr", "result": -30, "unit": "mg/dL"}, {"measurement": "Changes of glucose level to the initial, 1 hr", "setting": "[6]; 1 hr", "result": -29, "unit": "mg/dL"}, {"measurement": "Changes of glucose level to the initial, 3 hrs", "setting": "[6]; 3 hrs", "result": -22, "unit": "mg/dL"}, {"measurement": "Activity (rectal absorption)", "setting": "[7]; ABPC suppository", "result": 6.3}, {"measurement": "Activity (rectal absorption)", "setting": "[7]; CET suppository", "result": 3.0}, {"measurement": "Activity (rectal absorption)", "setting": "[8]; drug: 5-FU", "result": 4.8}, {"measurement": "Activity (rectal absorption)", "setting": "[8]; drug: Indomethacin", "result": 2.5}, {"measurement": "Average irritation score, 24 hours", "setting": "[9]; 3% solution in polyethylene glycol 300, 24 hours after removal of plaster", "result": "0.3 ± 0.3"}, {"measurement": "Average irritation score, 48 hours", "setting": "[9]; 3% solution in polyethylene glycol 300, 48 hours after removal of plaster", "result": "0.3 ± 0.3"}, {"measurement": "Average irritation score, 72 hours", "setting": "[9]; 3% solution in polyethylene glycol 300, 72 hours after removal of plaster", "result": "0.5 ± 0.5"}, {"measurement": "Overall evaluation (skin irritation)", "setting": "[9]; graded from irritation scores at 24, 48 and 72 hours", "result": "Mild (mild irritation (0-2 points))"}, {"measurement": "Activity (ketoprofen permeation)", "setting": "[10]", "result": 3.3}, {"measurement": "Activity (indomethacin permeation)", "setting": "[11]", "result": 3.2}, {"measurement": "Activity (indomethacin permeation)", "setting": "[12]", "result": 18.4}, {"measurement": "Activity (pindolol permeation)", "setting": "[13]", "result": 3.9}, {"measurement": "Activity (phenol red permeation)", "setting": "[14]", "result": 86.5}, {"measurement": "LD50 at 168 h", "setting": "[15]; po", "result": "> 5000", "unit": "mg/kg"}, {"measurement": "LD50 at 168 h", "setting": "[15]; sc", "result": "> 5000", "unit": "mg/kg"}]}]}
